Laboratory results from ChEMBL document CHEMBL1158636, “Discovery of a novel sulfonamide-pyrazolopiperidine series as potent and efficacious gamma-secretase inhibitors (Part II)” (Bioorg Med Chem Lett, 2010).

Assays:
[1] = Inhibition of gamma-secretase-mediated notch cleavage after 2 hrs by ELISA
[2] = Oxidative metabolic stability in human liver microsomes assessed as compound remaining at 2 uM after 30 mins in presence of 1 mM UDPGA; format: ADME, Microsome; conditions: liver microsomes, read-out: Stability
[3] = Inhibition of gamma-secretase-mediated APP cleavage assessed as amyloid beta40 level after 2 hrs by ELISA
Gamma-secretase = assay: Inhibition of gamma-secretase-mediated notch cleavage in human SNC cells by ELISA; format: cell-based
[4] = Oxidative metabolic stability in human liver microsomes assessed as compound remaining at 1 uM after 30 mins in presence of 1 mM NADPH; format: ADME, Microsome; conditions: liver microsomes, read-out: Stability
[5] = biological target: Gamma-secretase (Homo sapiens) (UniProt Q96BI3+Q9NZ42+Q8WW43+P49768+Q92542+P49810); assay: Inhibition of gamma-secretase-mediated APP cleavage in human SNC cells by ELISA; format: cell-based

Row | Compound | IC50 [1] [nM] | remaining at 0.5 h, 2 µM [2] [%] | IC50 [3] [nM] | IC50 (Gamma-secretase) [nM] | remaining at 0.5 h, 1 µM [4] [%] | ED50 [5] [nM]
1 | CC1C(=O)c2[nH]ncc2C(C2CC2)N1S(=O)(=O)c1ccc(C(F)(F)F)cc1 (stereo unspecified) | 12 | 67 | 0.5 | > 40000 | 62 | 2340
2 | O=C1CN(S(=O)(=O)c2ccc(C(F)(F)F)cc2)C(C(F)(F)F)c2cn[nH]c21 (stereo unspecified) | 51 | 6 | 2.6 | > 40000 | 1 | > 10000
3 | CC1C(=O)c2[nH]ncc2C(C)N1S(=O)(=O)c1ccc(C(F)(F)F)cc1 (stereo unspecified) | 89 | 77 | 6.8 | > 40000 | 63 | 5110
4 | CCC1c2cn[nH]c2C(=O)CN1S(=O)(=O)c1ccc(C(F)(F)F)cc1 (stereo unspecified) | – | – | 6.5 | > 40000 | 19 | > 10000
5 | O=C1CN(S(=O)(=O)c2ccc(C(F)(F)F)cc2)[C@H](C2CC2)c2cn[nH]c21 | 354 | – | 9.1 | > 40000 | – | > 10000
6 | O=S(=O)(c1ccc(C(F)(F)F)cc1)N1C(C2CC2)c2cn[nH]c2C(F)(F)C1C1CC1 (stereo unspecified) | 42 | 64 | 1.5 | 771 | 76 | 6
7 | CC(C)[C@@H]1c2cn[nH]c2C(=O)CN1S(=O)(=O)c1ccc(Cl)cc1 | 91 | 71 | 3.7 | > 40000 | 12 | 4000
8 | O=C1c2[nH]ncc2C(C2CC2)N(S(=O)(=O)c2ccc(C(F)(F)F)nc2)C1C1CCOCC1 (racemic) | 19 | 64 | 1 | 187 | 57 | 1
9 | CC(C)C1c2cn[nH]c2C(F)(F)CN1S(=O)(=O)c1ccc(Cl)cc1 (racemic) | 12 | 42 | 0.7 | 574 | 2 | 11
10 | O=C1c2[nH]ncc2C(C2CC2)N(S(=O)(=O)c2ccc(C(F)(F)F)cc2)C12CCCC2 (racemic) | 8 | – | 0.4 | 235 | 3 | 2
11 | O=C1CN(S(=O)(=O)c2ccc(C(F)(F)F)nc2)C(C2CC2)c2cn[nH]c21 (racemic) | 193 | 42 | 5.6 | > 40000 | 5 | 6000
12 | O=C1c2[nH]ncc2C(C2CC2)N(S(=O)(=O)c2ccc(C(F)(F)F)cc2)C1C1CC1 (racemic) | 21 | 76 | 0.4 | 2790 | 67 | 21
13 | O=C1c2[nH]ncc2C(C2CC2)N(S(=O)(=O)c2ccc(C(F)(F)F)nc2)C1c1cc(F)cc(F)c1 (racemic) | 17 | – | 0.7 | 4000 | 9 | > 1000
14 | O=S(=O)(c1ccc(C(F)(F)F)cc1)N1CC(F)(F)c2[nH]ncc2C1C(F)(F)F (racemic) | 10 | 35 | 0.9 | 403 | 84 | 4
15 | CC1(C)C(=O)c2[nH]ncc2C(C2CC2)N1S(=O)(=O)c1ccc(C(F)(F)F)cc1 (racemic) | 268 | 67 | 7.3 | 2660 | 68 | 60
16 | O=C1c2[nH]ncc2C(C2CC2)N(S(=O)(=O)c2ccc(C(F)(F)F)cc2)C12CC2 (racemic) | 69 | 84 | 1.9 | 995 | 85 | 11
17 | O=C1c2[nH]ncc2C(C2CC2)N(S(=O)(=O)c2ccc(Cl)s2)C12CC2 (racemic) | 18 | – | 2 | 576 | 1 | 7

Row | Compound | IC50 [1] [nM] | remaining at 0.5 h, 2 µM [2] [%] | IC50 [3] [nM] | IC50 (Gamma-secretase) [nM] | remaining at 0.5 h, 1 µM [4] [%] | ED50 [5] [nM]
18 | O=C1c2[nH]ncc2C(C2CC2)N(S(=O)(=O)c2ccc(C(F)(F)F)cn2)C12CC2 (racemic) | – | – | – | – | – | 87
19 | O=C1c2[nH]ncc2C(C2CC2)N(S(=O)(=O)c2ccc(C(F)(F)F)nc2)C12CC2 (racemic) | – | – | – | – | – | 7
20 | O=S(=O)(c1ccc(C(F)(F)F)nc1)N1C(C2CC2)c2cn[nH]c2C(F)(F)C12CC2 (racemic) | – | – | – | – | – | 0.5
21 | O=C1c2[nH]ncc2C(C2CC2)N(S(=O)(=O)c2ccc(C(F)(F)F)nc2)C12CC2 (racemic) [4'-CYCLO PROPYL-5'-(6-(TRIFLUORO METHYL)PYRIDIN-3-YL SULFONYL)-4',5'-DIHYDROSPIRO[CYCLOPROPANE-1,6'-PYRAZOLO[4,3-C]PYRIDIN]-7'(1'H)-ONE (ENANTIOMERIC MIX)] | 35 | 91 | 1.8 | 688 | 86 | –
22 | O=C1c2[nH]ncc2C(C2CC2)N(S(=O)(=O)c2ccc(C(F)(F)F)cn2)C12CC2 (racemic) [4'-CYCLOPROPYL-5'-(5-(TRIFLUORO METHYL)PYRIDIN-2-YL SULFONYL)-4',5'-DIHYDROSPIRO[CYCLOPROPANE-1,6'-PYRAZOLO[4,3-C]PYRIDIN]-7'(1'H)-ONE (ENANTIOMERIC MIX)] | 502 | 89 | 24 | 6210 | 76 | –
23 | COC[C@H]1C(=O)c2[nH]ncc2[C@@H](C2CC2)N1S(=O)(=O)c1ccc(C(F)(F)F)cc1 (relative stereo) | 126 | – | 3.2 | > 40000 | 14 | > 10000
24 | C[C@@H]1C(=O)c2[nH]ncc2[C@H](C)N1S(=O)(=O)c1ccc(C(F)(F)F)nc1 (stereo in doubt) | 2270 | – | 91 | > 40000 | 62 | > 10000
25 | CC[C@@H]1C(=O)c2[nH]ncc2[C@H](CC)N1S(=O)(=O)c1ccc(Cl)cc1 (stereo in doubt) | – | 77 | 0.3 | 546 | 6 | 6
26 | CC(C)(C)C1C(=O)c2[nH]ncc2C(C2CC2)N1S(=O)(=O)c1ccc(C(F)(F)F)nc1 (stereo in doubt; 3t) | – | – | – | – | – | 0.6
27 | CC(C)(C)C1C(=O)c2[nH]ncc2C(C2CC2)N1S(=O)(=O)c1ccc(C(F)(F)F)nc1 (stereo in doubt; 3t) [6-TERT-BUTYL-4-CYCLOPROPYL-5-(6-(TRIFLUOROMETHYL)PYRIDIN-3-YLSULFONYL)-5,6-DIHYDRO-1H-PYRAZOLO[4,3-C]PYRIDIN-7(4H)-ONE (STRUCTURAL MIX)] | 6 | 66 | 0.2 | 71 | 8 | –
28 | CC(C)(C)C1C(=O)c2[nH]ncc2C(C2CC2)N1S(=O)(=O)c1ccc(C(F)(F)F)nc1 (stereo in doubt; 3u) | – | – | – | – | – | 16
29 | O=C1c2[nH]ncc2C(C2CC2)N(S(=O)(=O)c2ccc(C(F)(F)F)nc2)C12CC2 (stereo in doubt; 16e) | – | – | – | – | – | 2680
30 | O=C1c2[nH]ncc2C(C2CC2)N(S(=O)(=O)c2ccc(C(F)(F)F)nc2)C12CC2 (stereo in doubt; 16f) | – | – | – | – | – | 4
31 | O=C1c2[nH]ncc2C(C2CC2)N(S(=O)(=O)c2ccc(C(F)(F)F)cn2)C12CC2 (stereo in doubt; 16h) | – | – | – | – | – | 1850
32 | O=C1c2[nH]ncc2C(C2CC2)N(S(=O)(=O)c2ccc(C(F)(F)F)cn2)C12CC2 (stereo in doubt; 16i) | – | – | – | – | – | 26
33 | O=S(=O)(c1ccc(C(F)(F)F)nc1)N1C(C2CC2)c2cn[nH]c2C(F)(F)C12CC2 (stereo in doubt; 17b) | – | – | – | – | – | 0.3
34 | O=S(=O)(c1ccc(C(F)(F)F)nc1)N1C(C2CC2)c2cn[nH]c2C(F)(F)C12CC2 (stereo in doubt; 17c) | – | – | – | – | – | 86
